Values of other authors in patent US20160101114A1, “ARTICLES AND METHODS FOR PREVENTING AND TREATING DERMATOLOGIC ADVERSE EVENTS” (SLOAN-KETTERING INSTITUTE FOR CANCER RESEARCH, priority 2013, published 2016).

Settings: cancer therapies with multikinase inhibitors

Molecule | all grade incidence of hand foot syndrome
CNC(=O)c1ccccc1Sc1ccc2c(/C=C/c3ccccn3)n[nH]c2c1 [axitinib] | 29%
COc1cc2c(Nc3ccc(Br)cc3F)ncnc2cc1OCC1CCN(C)CC1 [vandetanib] | 5%
CNC(=O)c1cc(Oc2ccc(NC(=O)Nc3ccc(Cl)c(C(F)(F)F)c3)c(F)c2)ccn1 [regorafenib] | 46%
CCN(CC)CCNC(=O)c1c(C)[nH]c(/C=C2\C(=O)Nc3ccc(F)cc32)c1C [sunitinib] | 30%
COc1cc2nccc(Oc3ccc(NC(=O)C4(C(=O)Nc5ccc(F)cc5)CC4)cc3)c2cc1OC [cabozantinib] | 50%
CNC(=O)c1cc(Oc2ccc(NC(=O)Nc3ccc(Cl)c(C(F)(F)F)c3)cc2)ccn1 [sorafenib] | 60%
ziv-aflibercept | 2%
Cc1ccc(Nc2nccc(N(C)c3ccc4c(C)n(C)nc4c3)n2)cc1S(N)(=O)=O [pazopanib] | 5%
